The results in this text go back to patent US4526989A, “1,4-Bis (substituted-amino)-5,8-dihydroxy-anthraquinones and leuco bases thereof” (priority 1979, dated 1985).

The assay deals with lymphocytic leukemia P388. As to the kind of experiment: Lymphocytic leukemia P388 test (intraperitoneal administration). Type of assay: in vivo, DBA/2 mice. As to the method:
The animals used are DBA/2 mice all of one sex, weighing a minimum of 17 g. and all within a 3 gram weight range. There are 5 or 6 animals per test group. The tumor transplant is by intraperitoneal injection of 0.1 ml. of dilute ascitic fluid containing 10^6 cells of lymphocytic leukemia P388. The test compounds are administered intraperitoneally on days one, 5 and 9 (relative to tumor inoculation) at various doses. The animals are weighed and survivors are recorded on a regular basis for 30 days. The median survival time and the ratio of survival time for treated (T)/control (C) animals are calculated.

Setting [1] is: 25 mg./kg. i.p., days 1, 5 and 9.
The mark [2] stands for this setting: 50 mg./kg. i.p., days 1, 5 and 9.
[3] abbreviates: 100 mg./kg. i.p., days 1, 5 and 9.
[4] abbreviates: 200 mg./kg. i.p., days 1, 5 and 9.
Setting [5] is: Mus musculus, P388, ip; 25 mg./kg. i.p., days 1, 5 and 9; efficacy ≥125%; read-out: T/C × 100.
The mark [6] stands for this setting: Mus musculus, P388, ip; 50 mg./kg. i.p., days 1, 5 and 9; efficacy ≥125%; read-out: T/C × 100.
The mark [7] stands for this setting: Mus musculus, P388, ip; 100 mg./kg. i.p., days 1, 5 and 9; efficacy ≥125%; read-out: T/C × 100.
Setting [8] is: Mus musculus, P388, ip; 200 mg./kg. i.p., days 1, 5 and 9; efficacy ≥125%; read-out: T/C × 100.
Where [9] appears, read: 0.78 mg./kg. i.p., days 1, 5 and 9.
[10] abbreviates: 1.56 mg./kg. i.p., days 1, 5 and 9.
Setting [11] is: 3.1 mg./kg. i.p., days 1, 5 and 9.
[12] abbreviates: 6.25 mg./kg. i.p., days 1, 5 and 9.
[13] abbreviates: 12.5 mg./kg. i.p., days 1, 5 and 9.
Where [14] appears, read: Mus musculus, P388, ip, read-out: T/C × 100.
The mark [15] stands for this setting: Mus musculus, P388, ip; 0.78 mg./kg. i.p., days 1, 5 and 9; efficacy ≥125%; read-out: T/C × 100.
The mark [16] stands for this setting: Mus musculus, P388, ip; 1.56 mg./kg. i.p., days 1, 5 and 9; efficacy ≥125%; read-out: T/C × 100.
The mark [17] stands for this setting: Mus musculus, P388, ip; 3.1 mg./kg. i.p., days 1, 5 and 9; efficacy ≥125%; read-out: T/C × 100.
[18] abbreviates: Mus musculus, P388, ip; 6.25 mg./kg. i.p., days 1, 5 and 9; efficacy ≥125%; read-out: T/C × 100.
Setting [19] is: Mus musculus, P388, ip; 12.5 mg./kg. i.p., days 1, 5 and 9; efficacy ≥125%; read-out: T/C × 100.
The mark [20] stands for this setting: 6.2 mg./kg. i.p., days 1, 5 and 9.
The mark [21] stands for this setting: Mus musculus, P388, ip; 6.2 mg./kg. i.p., days 1, 5 and 9; efficacy ≥125%; read-out: T/C × 100.
Where [22] appears, read: 3.12 mg./kg. i.p., days 1, 5 and 9.
The mark [23] stands for this setting: Mus musculus, P388, ip; 3.12 mg./kg. i.p., days 1, 5 and 9; efficacy ≥125%; read-out: T/C × 100.

Where a name gives a salt, the structure may show the parent alone. Read-outs that look alike come from different tables or passages of the source.

Turning to `O=C1C2=C(NCCN3CCOCC3)CCC(NCCN3CCOCC3)=C2C(=O)c2c(O)ccc(O)c21` [Leuco-1,4-bis(2-morpholinoethylamino)-5,8-dihydroxyanthraquinone], the “Median Survival Time” value came to 12.0 days under setting [1], 11.0 days under setting [2], 12.0 days under setting [3] and 13.0 days under setting [4]. Under setting [5], the response vs control in vivo at 25 mg/kg was 126%. The response vs control in vivo at 50 mg/kg under setting [6] was 116%. Besides, the response vs control in vivo at 100 mg/kg under setting [7] was 126%. For the same molecule, the response vs control in vivo at 200 mg/kg under setting [8] was determined as 137%.

`O=C1C2=C(NCCNCCCO)CCC(NCCNCCCO)=C2C(=O)c2c(O)ccc(O)c21` [Leuco-1,4-bis[2-(3-hydroxy-1-propylamino)ethylamino]-5,8-dihydroxyanthraquinone]: the “Median Survival Time” value runs as follows: under setting [9], 18.0 days; under setting [10], 19.5 days; under setting [11], 18.5 days; under setting [12], 16.5 days; under setting [13], 19.5 days; under setting [1], 22.0 days. In addition, the “Median Survival Time” value is, setting by setting: under setting [2], 34.0 days; under setting [3], 38.0 days; under setting [4], 14.0 days. Further, the response vs control in vivo at 25 mg/kg under setting [14] was 200%. Under setting [15], the response vs control in vivo at 0.78 mg/kg worked out at 164%. Moreover, the response vs control in vivo at 1.56 mg/kg under setting [16] was 177%. Under setting [17], the response vs control in vivo at 3.1 mg/kg was 168%. For the same molecule, under setting [18], the response vs control in vivo at 6.25 mg/kg came out at 150%. Also, the response vs control in vivo at 12.5 mg/kg under setting [19] worked out at 177%. Besides, under setting [6], the response vs control in vivo at 50 mg/kg was determined as 309%. Besides, under setting [7], the response vs control in vivo at 100 mg/kg worked out at 345%. The response vs control in vivo at 200 mg/kg under setting [8] was determined as 127%.

On to `Cl.Cl.NCCNc1ccc(NCCN)c2c1C(=O)c1c(O)ccc(O)c1C2=O` [1,4-Bis(2-aminoethylamino)-5,8-dihydroxyanthraquinone dihydrochloride], for which the “Median Survival Time” value worked out at 23.0 days (0.19 mg./kg. i.p., days 1, 5 and 9); 25.5 days (0.39 mg./kg. i.p., days 1, 5 and 9); 24.5 days under setting [9]; 20.0 days under setting [10]; 30.0 days under setting [11]; 15.5 days under setting [20]. Moreover, the “Median Survival Time” value under setting [13] came out at 8.0 days. Also, the response vs control in vivo at 0.19 mg/kg (Mus musculus, P388, ip, 0.19 mg./kg. i.p., days 1, 5 and 9; efficacy ≥125%; read-out: T/C × 100) turned out to be 209%. Further, the response vs control in vivo at 0.39 mg/kg (Mus musculus, P388, ip; 0.39 mg./kg. i.p., days 1, 5 and 9; efficacy ≥125%; read-out: T/C × 100) was determined as 232%. In addition, under setting [15], the response vs control in vivo at 0.78 mg/kg was found to be 223%. Also, the response vs control in vivo at 1.56 mg/kg under setting [16] was found to be 182%. Further, under setting [17], the response vs control in vivo at 3.1 mg/kg came to 273%. Also, under setting [21], the response vs control in vivo at 6.2 mg/kg was determined as 141%. In addition, under setting [19], the response vs control in vivo at 12.5 mg/kg came to 73%.

In the case of `Cl.Cl.O=C1c2c(O)ccc(O)c2C(=O)c2c(NCCCNCCO)ccc(NCCCNCCO)c21` [1,4-Bis[3-(2-hydroxyethylamino)-1-propylamino]-5,8-dihydroxyanthraquinone dihydrochloride], the “Median Survival Time” value reads like this: under setting [9], 15.0 days; under setting [10], 16.0 days; under setting [22], 19.0 days; under setting [12], 19.0 days; under setting [13], 22.5 days; under setting [1], 26.5 days. Moreover, the “Median Survival Time” value runs as follows: under setting [2], 32.0 days; under setting [3], 12.5 days. Moreover, the response vs control in vivo at 0.78 mg/kg under setting [15] stood at 136%. The response vs control in vivo at 1.56 mg/kg under setting [16] stood at 145%. Further, the response vs control in vivo at 3.12 mg/kg under setting [23] is 173%. Besides, the response vs control in vivo at 6.25 mg/kg under setting [18] is 173%. Also, under setting [19], the response vs control in vivo at 12.5 mg/kg came to 205%. Besides, under setting [5], the response vs control in vivo at 25 mg/kg came to 241%. Besides, under setting [6], the response vs control in vivo at 50 mg/kg worked out at 291%. The response vs control in vivo at 100 mg/kg under setting [7] came to 114%.

Regarding `O=C1C2=C(NCCCNCCO)CCC(NCCCNCCO)=C2C(=O)c2c(O)ccc(O)c21` [Leuco-1,4-bis[3-(2-hydroxyethylamino)-1-propylamino]-5,8-dihydroxyanthraquinone], the “Median Survival Time” value under setting [22] turned out to be 15.0 days; the “Median Survival Time” value under setting [12] is 18.0 days; the “Median Survival Time” value under setting [13] turned out to be 19.0 days; the “Median Survival Time” value under setting [1] was 18.5 days; the “Median Survival Time” value under setting [2] came out at 25.0 days; the “Median Survival Time” value under setting [3] turned out to be 27.5 days. Besides, under setting [4], the “Median Survival Time” value worked out at 33.5 days. Further, the response vs control in vivo at 3.12 mg/kg under setting [23] was found to be 136%. Further, under setting [18], the response vs control in vivo at 6.25 mg/kg amounted to 164%. Besides, under setting [19], the response vs control in vivo at 12.5 mg/kg worked out at 173%. In addition, the response vs control in vivo at 25 mg/kg under setting [5] was determined as 168%. Also, the response vs control in vivo at 50 mg/kg under setting [6] was determined as 227%. Under setting [7], the response vs control in vivo at 100 mg/kg came out at 250%. Further, under setting [8], the response vs control in vivo at 200 mg/kg was determined as 305%.

For the molecule `O=C1c2c(O)ccc(O)c2C(=O)c2c(NCCN3CC3)ccc(NCCN3CC3)c21` [1,4-Bis[2-(1-aziridino)ethylamino]-5,8-dihydroxyanthraquinone], the “Median Survival Time” value under setting [9] was 14.0 days; the “Median Survival Time” value under setting [10] amounted to 17.0 days; the “Median Survival Time” value under setting [22] came to 19.5 days; the “Median Survival Time” value under setting [12] worked out at 18.5 days; the “Median Survival Time” value under setting [13] came out at 20.5 days; the “Median Survival Time” value under setting [1] worked out at 20.0 days. In addition, the “Median Survival Time” value under setting [2] is 21.5 days and the “Median Survival Time” value under setting [3] is 28.5 days. In addition, the response vs control in vivo at 0.78 mg/kg under setting [15] amounted to 140%. In addition, the response vs control in vivo at 1.56 mg/kg under setting [16] is 170%. Also, the response vs control in vivo at 3.12 mg/kg under setting [23] was 195%. Further, the response vs control in vivo at 6.25 mg/kg under setting [18] turned out to be 185%. In addition, under setting [19], the response vs control in vivo at 12.5 mg/kg was 205%. Under setting [6], the response vs control in vivo at 50 mg/kg was determined as 215%. Under setting [7], the response vs control in vivo at 100 mg/kg turned out to be 285%. The response vs control in vivo at 25 mg/kg (Mus musculus, P388, ip; read-out: T/C × 100) was 200%.

On to `CNCCNCCNc1ccc(NCCNCCNC)c2c1C(=O)c1c(O)ccc(O)c1C2=O.Cl.Cl.Cl.Cl` [1,4-Bis[2-(2-methylaminoethylamino)ethylamino]-5,8-dihydroxyanthraquinone Tetrahydrochloride], for which the “Median Survival Time” value is, setting by setting: (1.12 mg./kg. i.p., days 1, 5 and 9) 13.5 days; under setting [10], 13.0 days; under setting [12], 16.0 days; under setting [13], 17.0 days; under setting [1], 19.5 days; under setting [2], 22.0 days. Besides, the “Median Survival Time” value under setting [3] was determined as 22.0 days. The response vs control in vivo at 1.12 mg/kg (Mus musculus, P388, ip; 1.12 mg./kg. i.p., days 1, 5 and 9; efficacy ≥125%; read-out: T/C × 100) was determined as 135%. The response vs control in vivo at 1.56 mg/kg under setting [16] amounted to 130%. Under setting [18], the response vs control in vivo at 6.25 mg/kg amounted to 160%. Further, the response vs control in vivo at 12.5 mg/kg under setting [19] was 170%. Further, the response vs control in vivo at 25 mg/kg under setting [5] was 195%. For the same molecule, under setting [6], the response vs control in vivo at 50 mg/kg was 220%. Besides, the response vs control in vivo at 100 mg/kg under setting [7] came out at 220%.

Take `O=C1c2c(O)ccc(O)c2C(=O)c2c(NCCNCCN3CCOCC3)ccc(NCCNCCN3CCOCC3)c21` [1,4-Bis[2-[2-(1-morpholino)ethylamino]ethylamino]-5,8-dihydroxyanthraquinone tetrahydrochloride]: the “Median Survival Time” value under setting [11] came to 13.0 days; the “Median Survival Time” value under setting [20] turned out to be 14.0 days; the “Median Survival Time” value under setting [13] stood at 15.0 days; the “Median Survival Time” value under setting [1] is 19.5 days; the “Median Survival Time” value under setting [2] is 18.5 days; the “Median Survival Time” value under setting [3] is 20.0 days. Moreover, the “Median Survival Time” value under setting [4] turned out to be 9.5 days. Also, under setting [14], the response vs control in vivo at 100 mg/kg was determined as 200%. Moreover, under setting [17], the response vs control in vivo at 3.1 mg/kg was found to be 130%. The response vs control in vivo at 6.2 mg/kg under setting [21] is 140%. The response vs control in vivo at 12.5 mg/kg under setting [19] was determined as 150%. Moreover, the response vs control in vivo at 25 mg/kg under setting [5] came out at 195%. The response vs control in vivo at 50 mg/kg under setting [6] turned out to be 185%. The response vs control in vivo at 200 mg/kg under setting [8] was 95%.
